How the values were obtained:
[1] = test system: MV-4-11 cell line with FLT3 ITD/ITD isogenic mutation; experiment: MV-4-11 cell line xenografted mouse model, anti-tumor efficacy; assay type: in vivo, BALB/c Nude mouse; settings: MV-4-11 xenograft, Compound A 3 mg/kg; for Maximum inhibition (%): oral once a day for 21 days, combination 3 + 100 mg/kg, largest tumor inhibition rate during observation
Source text: In a mouse model xenografted with the cell line MV-4-11 with FLT3 ITD/ITD isogenic mutation (ATCC, CRL-9591), a comparative or combination efficacy test of the FLT3 inhibitor, 5-chloro-N-(3-cyclopropyl-5-(((3R,5S)-3,5-dimethylpiperazin-1-yl) methyl) phenyl)-4-(6-methyl-1H-indol-3-yl) pyrimidin-2-amine (hereinafter ‘Compound A’), and the Bcl-2 inhibitor, 4-[4-[[2-(4-chlorophenyl)-4,4-dimethylcyclohexen-1-yl]methyl] piperazin-1-yl]-N-[3-nitro-4-(oxan-4-ylmethylamino) phenyl] sulfonyl-2-(1H-pyrrolo [2,3-b]pyridin-5-yloxy) benzamide (hereinafter ‘venetoclax’), was conducted.
MV-4-11 cell lines were purchased from the American Type Culture Collection (ATCC). To build a mouse model xenografted with this MV-4-11 cell line, a 5-week-old male BALB/c Nude mouse (hereinafter referred to as “Nude Mouse”) was purchased from Charles River Laboratories Japan, Inc.
The MV-4-11 cell line was injected subcutaneously in a nude mouse with 5×10^6 cells/0.15 mL/mouse, and was allowed to grow. Mice with a tumor volume of 80 to 300 mm^3 (length×width^2×0.5) were selected on the day of administration, separated into 4 groups (7/group) and administered for a total of 21 days so that the average tumor volume in each group was almost the same.
The control group was administered DMSO/PEG400/DW (ratio=0.5/2/7.5, volume/volume/volume) mixed solution orally once a day, and the compound A group was administered 3 mg/kg/day once a day. It was orally administered, and the venetoclax group was orally administered once a day at a dose of 100 mg/kg/day. In the combined group, compound A was administered orally once a day at a dose of 3 mg/kg/day, and venetoclax was administered orally once a day at a dose of 100 mg/kg/day. Each group was administered individual medications for 21 days.
The maximum inhibition rate (%) and the change in weight loss (%) of mice were calculated, and the experimental results are shown in Table 1. The Inhibition rate (IR) was obtained from “(1−mean of individual relative tumor volume in the drug treatment group/average of individual relative tumor volume in the control group)×100%”, and the maximum inhibition rate was the largest inhibition rate during the observation period. The change in weight loss (%) was calculated from “(1−weight on the day of measurement/weight on the start day of administration)×100%”. The relative tumor volume was calculated from “the tumor volume/initial tumor volume×100% at the date of measurement”.

[2] = test system: MOLM-13 cell line carrying the FLT3-WT/ITD heterogeneous mutation; experiment: MOLM-13 cell line xenografted mouse model, anti-tumor efficacy; assay type: in vivo, nude mice; settings: MOLM-13 xenograft, Compound A 10 mg/kg, venetoclax 100 mg/kg; for Maximum inhibition (%): oral once a day for 14 days, combination 10 + 100 mg/kg, largest tumor inhibition rate during observation
Procedure: In a mouse model xenografted with the MOLM-13 (DSMZ no. ACC 554) cell line carrying the FLT3-WT/ITD heterogeneous mutation, a comparative or combination efficacy test of the FLT3 inhibitor, 5-chloro-N-(3-cyclopropyl-5-(((3R,5S)-3,5-dimethylpiperazine-1-yl) methyl) phenyl)-4-(6-methyl-1H-indol-3-yl) pyrimidin-2-amine (hereinafter ‘Compound A’) and the Bcl-2 inhibitor, venetoclax was conducted.
The MOLM-13 cell line was purchased from Deutsche Sammlung von Mikroorganismen und Zellkulturen (DSMZ) GmbH. To construct a mouse model xenografted with this MOLM-13 cell line, 5-week-old male nude mice were purchased from Charles River Laboratories Japan, Inc.
The MOLM-13 cell line was injected subcutaneously into nude mice at 5×10^6 cells/0.2 mL/mouse, and was allowed to grow. Mice having a tumor volume of 55 to 415 mm^3 (length×width^2×0.5) were selected on the day of administration, and after having been divided into 4 groups (3 mice each in the control group and the compound A group, 4 mice each in the venetoclax group and the compound A and venetoclax combination group) so that the average tumor volume of each group was similar, the control group was administered for 11 days, and each drug administration group received individual medications for 14 days. The control group was measured for 12 days, and each drug administration group was measured for 15 days.
The control group received an oral administration of a mixed solution of DMSO/PEG400/DW (ratio=0.5/2/7.5, volume/volume/volume) once a day, the compound A group received an oral administration once a day at a dose of 10 mg/kg/day, and the venetoclax group received an oral administration once a day at a dose of 100 mg/kg/day. […]
The maximum inhibition rate (%) and the change in weight loss (%) of mice were calculated, and the experimental results are shown in Table 2. […] The change in weight loss (%) was calculated from “(1−body weight on the measurement day/weight on the start date of administration)×100%”. Relative tumor volume was calculated from “tumor volume on measurement day/initial tumor volume×100%”.

[3] = test system: relapsed or refractory AML; experiment: Open-label first-in-human dose escalation, exploration and expansion study; assay type: in vivo; settings: patients with relapsed or refractory AML, single agent, 80 mg dose daily oral
Source text: This study is an open-label, first-in-human, dose escalation, exploration, and expansion study of Compound A as a single agent and in combination with venetoclax in patients with relapsed or refractory AML. Cycle 1 in dose escalation is defined as 30 days, all other cycles lasting at least 28 days. Patients will receive oral Compound A at QD on a continuous basis, with the exception of Cycle 1 Day 2 in Part A. The study treatment can continue until a discontinuation criterion is met.
The initial dose level of Compound A as a single agent was 20 mg daily and the decision to dose escalate to the next dose level is made based on the assessment of safety variables including moderate toxicity (MT, a Grade 2 AE judged by the investigator to be related to study drug (except for hematologic toxicities)) or dose limiting toxicity (DLT). This study includes 3 parts: Part A: Dose Escalation; Part B: Dose Exploration; and Part C: Dose Expansion.
Part A includes the initial dose escalation cohorts. Provisional dose escalation scheme with the planned doses of Compound A are as follows: 20 mg, 30 mg, 40 mg, 60 mg, 80 mg, 120 mg, 160 mg, 200 mg, or 240 mg. Patients are treated daily in 28-day cycles except for the Cycle 1 (30 days). The DLT observation period is during Cycle 1 starting with the first dose on Day 1. […]

SMILES | complete regression (mice out of 7) ([1]; 9th day of administration, venetoclax 100 mg/kg) | partial regression (mice out of 7) ([1]; 16th day of administration) | Maximum inhibition (%) ([1]; venetoclax 100 mg/kg) | Maximum inhibition (%) [2] [%] | complete regression (mice per group) ([2]; combined group on 7th day of administration) | clinical response (complete responses) [3]
Cc1ccc2c(-c3nc(Nc4cc(CN5C[C@@H](C)N[C@@H](C)C5)cc(C5CC5)c4)ncc3Cl)c[nH]c2c1 [Compound A, 5-chloro-N-(3-cyclopropyl-5-(((3R,5S)-3,5-dimethylpiperazin-1-yl)methyl)phenyl)-4-(6-methyl-1H-indol-3-yl) pyrimidin-2-amine] | not observed | 1 out of 7 | 54.0 | 68.1 | not observed | several complete responses
CC1(C)CCC(CN2CCN(c3ccc(C(=O)NS(=O)(=O)c4ccc(NCC5CCOCC5)c([N+](=O)[O-])c4)c(Oc4cnc5[nH]ccc5c4)c3)CC2)=C(c2ccc(Cl)cc2)C1 [Venetoclax, 4-[4-[[2-(4-chlorophenyl)-4,4-dimethylcyclohexen-1-yl]methyl]piperazin-1-yl]-N-[3-nitro-4-(oxan-4-ylmethylamino)phenyl] sulfonyl-2-(1H-pyrrolo [2,3-b]pyridin-5-yloxy) benzamide, reference compound] | – | – | 76.1 | 56.3 | – | –

From US20240423979A1, “THERAPEUTICALLY EFFECTIVE COMBINATION OF A FLT3 INHIBITOR AND A BCL-2 INHIBITOR FOR THE TREATMENT OF ACUTE MYELOID LEUKEMIA” (Hanmi Pharm. Co., Ltd., priority 2021, published 2024)
